Format in all cases: cell-based
The test system of assay [1] is NCI-H69 lung carcinoma cells. The assay can be described thus: Cell growth inhibition (CellTiter-Glo), NCI-H69. Conditions: Homo sapiens, NCI-H69, 72 h, 3 days. The source says: (§1) Esophageal carcinoma cell line OE33 was purchased from ECACC European Collection of Cell Cultures (UK). Breast cancer cell line JIMT-1 and gastric carcinoma cell line MKN-45 were purchased from Deutsche Sammlung von Mikroorganismen and Zellkulturen GmbH (Germany); KPL-4, a human breast cancer cell line was kindly provided by Prof. J Kurebayashi (Kawasaki Medical School, Kurashiki, Japan). […] The LICR-LON-HN5 head and neck carcinoma cell line (HN5) was a gift from the Institute of Cancer Research, Surrey, U.K. HN5C12 was developed by single-cell cloning of HN5 followed by exposure to increasing concentrations of lapatinib. […] Cell growth inhibition was determined via CellTiter-Glo cell viability assays. […] BT474-J4 and HN5C12 were washed with PBS and plated in their culture media without lapatinib. […] ATP levels were determined by adding Cell Titer Glo0 (Promega), incubating for 20 minutes then the luminescent signal was read on the SpectraMax M5 plate with a 0.5 second integration time. Cell growth was calculated relative to vehicle (DMSO) treated control wells. […] y=([…]) where A is the minimum response (ymin), B is the maximum response (ymax), c is the inflection point of the curve (EC50), d is the Hill coefficient, and x is the log10 compound concentration (moles/L). CI values were calculated with the interpolated IC50 values and the mutually non-exclusive equation derived by Chou and […](a)+Db/IC50(b)+(Da×Db)/(IC50(a)×IC50(b)) where IC50(a) is the IC50 of the inhibitor A; IC50(b) is the IC50 for the inhibitor B; […] Excess Over Highest Single Agent (EOHSA) is defined as a statistically significant improvement in the combination compared to the component monotherapies. […] See Borisy et al. (2003) or Hung et al. (1993) for examples and discussion. Analysis was conducted using two-factor analysis of variance with interaction (model terms were dose of drug A, dose of drug B, and interaction between doses of drug A and B), followed by linear contrasts between each combination group and corresponding monotherapies. Analysis was conducted using SAS (version 9, provided by SAS Institute, Cary, N.C.). EOHSA at each dose was calculated as the minimum difference in average % inhibition between the combination and each monotherapy, from the appropriate ANOVA contrast. Since there are many comparisons for the % inhibition endpoint, p-value adjustment for multiple comparisons was performed. Hommel's procedure was implemented in order to improve the power while retaining […] Error Rate (FWE) control by using a sequentially rejective method. The p-values for both synergy and antagonism were calculated using this adjustment.

For assay [2], the system named is HN5C12 (HN5C2) lapatinib resistant head and neck carcinoma cells. The assay can be described thus: Cell growth inhibition (CellTiter-Glo), HN5C12. Conditions: Homo sapiens, 72 h, 3 days.
Source text: as §1
Background: ATP-based viability assays read luminescence as a measure of living cells.

The subject of assay [3] is NCI-H1648 lung carcinoma cells. The experiment in a line: Cell growth inhibition (CellTiter-Glo), NCI-H1648. Conditions: Homo sapiens, NCI-H1648, 72 h, 3 days. The source says: (§2) Esophageal carcinoma cell line OE33 was purchased from ECACC European Collection of Cell Cultures (UK). Breast cancer cell line JIMT-1 and gastric carcinoma cell line MKN-45 were purchased from Deutsche Sammlung von Mikroorganismen and Zellkulturen GmbH (Germany); KPL-4, a human breast cancer cell line was kindly provided by Prof. J Kurebayashi (Kawasaki Medical School, Kurashiki, Japan). […] The LICR-LON-HN5 head and neck carcinoma cell line (HN5) was a gift from the Institute of Cancer Research, Surrey, U.K. HN5C12 was developed by single-cell cloning of HN5 followed by exposure to increasing concentrations of lapatinib. […] Cell growth inhibition was determined via CellTiter-Glo cell viability assays. […] BT474-J4 and HN5C12 were washed with PBS and plated in their culture media without lapatinib. […] ATP levels were determined by adding Cell Titer Glo0 (Promega), incubating for 20 minutes then the luminescent signal was read on the SpectraMax M5 plate with a 0.5 second integration time. Cell growth was calculated relative to vehicle (DMSO) treated control wells. […] Excess Over Highest Single Agent (EOHSA) is defined as a statistically significant improvement in the combination compared to the component monotherapies. […] Analysis was conducted using two-factor analysis of variance with interaction (model terms were dose of drug A, dose of drug B, and interaction between doses of drug A and B), followed by linear contrasts between each combination group and corresponding monotherapies. Analysis was conducted using SAS (version 9, provided by SAS Institute, Cary, N.C.). EOHSA at each dose was calculated as the minimum difference in average % inhibition between the combination and each monotherapy, from the appropriate ANOVA contrast. Since there are many comparisons for the % inhibition endpoint, p-value adjustment for multiple comparisons was performed. Hommel's procedure was implemented in order to improve the power while retaining […] Error Rate (FWE) control by using a sequentially rejective method. The p-values for both synergy and antagonism were calculated using this adjustment.

For assay [4], the system named is KPL-4 breast cancer cells. The experiment in a line: Cell growth inhibition (CellTiter-Glo), KPL-4. Conditions: Homo sapiens, KPL4, 72 h, 3 days.
Source text: as §1

In assay [5] the test system is NCI-H1573 lung carcinoma cells. The experiment in a line: Cell growth inhibition (CellTiter-Glo), NCI-H1573. Conditions: Homo sapiens, NCI-H1573, 72 h, 3 days.
Source text: as §2

Assay [6] relates to SCC15 head and neck squamous cell carcinoma cells. The assay can be described thus: Cell growth inhibition (CellTiter-Glo), SCC15. Conditions: Homo sapiens, SCC-15, 72 h, 3 days.
Source text: as §2

The test system of assay [7] is NCI-H1993 lung carcinoma cells. The assay can be described thus: Cell growth inhibition (CellTiter-Glo), NCI-H1993. Conditions: Homo sapiens, NCI-H1993, 72 h, 3 days.
Source text: as §1

In assay [8] the test system is NCI-H2342 lung carcinoma cells. The experiment in a line: Cell growth inhibition (CellTiter-Glo), NCI-H2342. Conditions: Homo sapiens, NCI-H2342, 72 h, 3 days.
Source text: as §1

For assay [9], the system named is NCI-H596 lung carcinoma cells. The experiment in a line: Cell growth inhibition (CellTiter-Glo), NCI-H596. Conditions: Homo sapiens, NCI-H596, 72 h, 3 days.
Source text: as §1

Assay [10] deals with HOP-92 lung carcinoma cells. The experiment in a line: Cell growth inhibition (CellTiter-Glo), HOP-92. Conditions: Homo sapiens, HOP-92, 72 h, 3 days.
Source text: as §1

SMILES strings stand for the structures.

As to `C#Cc1cccc(Nc2ncnc3cc(OCCOC)c(OCCOC)cc23)c1` [Erlotinib, N-(3-ethynylphenyl)-6,7-bis{[2-(methyloxy)ethyl]oxy}-4-quinazolinamine], the IC50 in assay [1] (lung_H69, +HGF (2 ng/mL)) is > 10 µM; in assay [1] (lung_H69, −HGF), > 10 µM; in assay [2] (hn_HN5C2, +HGF (2 ng/mL)), > 10 µM; in assay [2] (hn_HN5C2, −HGF) it was > 10 µM; in [3] (lung_H1648, +HGF (2 ng/mL)) it was > 10 µM; in assay [3] (lung_H1648, −HGF), > 10 µM. Further, the IC50 was > 10000 nM in assay [4] (breast_KPL4, +HGF (2 ng/mL)); > 10000 nM in [4] (breast_KPL4, −HGF); > 10 µM in assay [5] (lung_H1573, +HGF (2 ng/mL)); > 10 µM in [5] (lung_H1573, −HGF); 7700 nM in assay [6] (hn_SCC15, +HGF (2 ng/mL)); 1620 nM in assay [6] (hn_SCC15, −HGF). The half-inhibitory concentration (IC50) in [7] (lung_H1993, +HGF (2 ng/mL)) is > 10 µM; in [7] (lung_H1993, −HGF), 8.13 µM; in assay [8] (lung_H2342, +HGF (2 ng/mL)) it was > 10 µM; in [8] (lung_H2342, −HGF), > 10 µM; in assay [9] (lung_H596, +HGF (2 ng/mL)) it was > 10 µM; in [9] (lung_H596, −HGF), > 10 µM. The IC50 is > 10 µM in [10] (lung_HOP-92, +HGF (2 ng/mL)) and > 10 µM in [10] (lung_HOP-92, −HGF).
As to `CS(=O)(=O)CCNCc1ccc(-c2ccc3ncnc(Nc4ccc(OCc5cccc(F)c5)c(Cl)c4)c3c2)o1` [Lapatinib, N-(3-chloro-4-{[(3-fluorophenyl)methyl]oxy}phenyl)-6-[5-({[2-(methylsulfonyl)ethyl]amino}methyl)-2-furanyl]-4-quinazolinamine], the IC50 is 4.74 µM in assay [1] (lung_H69, +HGF (2 ng/mL)); 5.36 µM in assay [1] (lung_H69, −HGF); 3.85 µM in [2] (hn_HN5C2, +HGF (2 ng/mL)); 4.12 µM in [2] (hn_HN5C2, −HGF); > 10 µM in assay [3] (lung_H1648, +HGF (2 ng/mL)); 7.39 µM in assay [3] (lung_H1648, −HGF). The concentration for half-maximal inhibition (IC50) is 890 nM in [4] (breast_KPL4, +HGF (2 ng/mL)); 1000 nM in assay [4] (breast_KPL4, −HGF); > 10 µM in assay [5] (lung_H1573, +HGF (2 ng/mL)); 9.83 µM in assay [5] (lung_H1573, −HGF); 3810 nM in assay [6] (hn_SCC15, +HGF (2 ng/mL)); 1080 nM in assay [6] (hn_SCC15, −HGF). Also, the half-maximal inhibitory concentration (IC50) in assay [7] (lung_H1993, +HGF (2 ng/mL)) was > 10 µM; in assay [7] (lung_H1993, −HGF) it was > 10 µM; in [8] (lung_H2342, +HGF (2 ng/mL)), 6.64 µM; in [8] (lung_H2342, −HGF), 6.81 µM; in [9] (lung_H596, +HGF (2 ng/mL)), > 10 µM; in assay [9] (lung_H596, −HGF) it was > 10 µM. Further, the IC50 in assay [10] (lung_HOP-92, +HGF (2 ng/mL)) was > 10 µM; in assay [10] (lung_HOP-92, −HGF), > 10 µM.

For orientation: IC50 means the midpoint of a concentration-inhibition curve.

The values are drawn from patent US20130150363A1, “Method of Treating Cancer Using a cMET and AXL Inhibitor and an ErbB Inhibitor” (GlaxoSmithKline, priority 2008, published 2013).
